Like-named read-outs stand apart in the source and are kept apart here.
Columns and labels:
[1] = system: ubiquitin‐protein conjugates and p27; experiment: Western blot of proteasome substrates (ubiquitin‐protein conjugates, p27); type: cell-based, human
Description: (§1) Cell viability was evaluated with the 3‐(4,5‐dimethylthiazol‐2‐yl)‐2,5‐diphenyltetrazolium bromide assay (MTT).^[ [25] ^] Upon 6 h and 24 h treatment with increasing concentrations (0‐10 µM) of C1, C2, and C3 dissolved in DMSO, cells were washed in PBS, pH 7.5, and then MTT (final concentration 0.5 mg mL^−1) was added to the culture medium without FBS and incubated for 2 h at 37 °C. The medium was then removed and replaced with 100 µL of DMSO. The optical density was measured at 550 nm in a microtiter plate reader. At least six cultures were utilized for each time point. Neuroblastoma cells, control and transfected cells, were then treated with C1, C2, and C3 for 6 and 24 h at the concentrations 0–1–5 µM. Compounds were dissolved in DMSO and then added to cell culture media. Control cells were included in each time point. After removing the medium and washing with cold phosphate buffered saline (PBS), cells were harvested in 4 mL of PBS and centrifuged at 1600 × g for 5 min. The pellet was resuspended in lysis buffer (20 mM Tris, pH 7.4, 250 mM sucrose, 1 mM EDTA, and 5 mM β‐mercaptoethanol) and passed through a 29‐gauge needle at least ten times. Lysates were centrifuged at 12 000×g for 15 min and the supernatants were stored at ‐80°C until use. Protein concentration was determined by the method of Bradford using bovine serum albumin (BSA) as standard.^[ [26] ^]
(§2) Proteins were resolved on SDS–PAGE and electroblotted onto PVDF membranes. Membranes with transferred proteins were incubated with the primary monoclonal antibody and successively with the specific peroxidase conjugated secondary antibody. Monoclonal antibodies against Ub and p27 were obtained from Santa Cruz Biotechnology, Inc. (Heidelberg, Germany). SQSTM1/p62 (sequestosome 1, herein p62) mouse monoclonal antibody was from Sigma‐Aldrich S.r.L. (Milano, Italy) and the anti‐LC3B antibody was purchased from Cell Signaling Technology, Inc. The immunoblot detection was performed with ECL Western blotting detection reagents using a ChemiDoc MP system. Each gel was loaded with molecular weight markers in the range of 12 to 225 kDa (GE Healthcare). Glyceraldehyde‐3‐phosphate dehydrogenase (GAPDH) was utilized as a control for equal protein loading: membranes were stripped and re‐probed with anti‐GAPDH monoclonal antibody (Santa Cruz Biotechnology, Heidelberg, Germany). Stripping buffer contained 200 mM glycine, 0.1% SDS, and 1% Tween 20. Immunoblot images were quantified using ImageJ 1.52p software (NIH, USA).

[2] = molecular target: T1, 20S immunoproteasome (Bos taurus, UniProt Q3SZC2+Q3T0T1+Q3T112); experiment: In vitro activity assays on isolated immunoproteasome (fluorogenic peptides); type: biochemical; settings: isolated 20S from bovine thymus
T1 construct: isolated constitutive and immunoproteasomes purified from bovine brain and thymus, respectively; from tissue; host or cells: bovine thymus
Description: (§3) PVLs effects on the 20S constitutive and immunoproteasome peptidase activities were measured through in vitro assays performed with fluorogenic peptides as substrates. Isolation and purification of the 20S proteasome from bovine brain and thymus were performed as previously reported.^[ [23] ^] The incubation mixture contained the compound at concentrations ranging from 0.0 to 10 µM, 1 µg of the isolated 20S proteasome, the appropriate substrate (5 µM final concentration), and 50 mm Tris/HCl (pH 8.0), up to a final volume of 100 µL. Purified proteasomes were always preincubated with each compound at 37°C for 30 min before the fluorogenic peptide substrates were added to the reaction mixture. Final incubation was performed at 37°C, and after 60 min the fluorescence of the hydrolyzed 7‐amino‐4‐methyl‐coumarin (AMC) and 4‐aminobenzoic acid (pAB) was detected (AMC, λexc = 365 nm, λem = 449 nm; pAB, λexc = 304 nm, λem = 664 nm) on a SpectraMax Gemini XPS microplate reader.
(§4) PVLs were first tested on isolated constitutive and immunoproteasomes purified from bovine brain and thymus, respectively. The constitutive 20S proteasome is a barrel‐shaped complex of four stacked rings, made of seven α subunits in the two outer rings and seven β subunits in the two inner rings, the latter bearing the catalytically active sites in the β1, β2, and β5 subunits. Treatment with inflammatory cytokines induces the transcription of three additional active subunits, known as β1i, β2i, and β5i, that replace constitutive homologues during proteasome assembly.^[ [28] ^] Proteasome proteolytic activities depend on the hydroxyl group of the N‐terminal threonine (Thr‐1) residue, responsible for cleaving peptides through a nucleophilic attack.^[ [29] ^]

[3] = molecular target: T2, 20S proteasome (Homo sapiens, UniProt P28072+P28074+Q99436); experiment: 20S proteasome activity in cell lysates (fluorimetric); type: cell-based; settings: cellular lysates, 1 and 5 µM, 6 and 24 h
T2 construct: The incubation mixture contained 1 µg of cell lysate, the appropriate substrate; endogenous in cells; host or cells: SH-SY5Y (control, APPwt- and APPmut-transfected); only APP is transfected, the proteasome is endogenous
T2 sequence (P28074 60-263): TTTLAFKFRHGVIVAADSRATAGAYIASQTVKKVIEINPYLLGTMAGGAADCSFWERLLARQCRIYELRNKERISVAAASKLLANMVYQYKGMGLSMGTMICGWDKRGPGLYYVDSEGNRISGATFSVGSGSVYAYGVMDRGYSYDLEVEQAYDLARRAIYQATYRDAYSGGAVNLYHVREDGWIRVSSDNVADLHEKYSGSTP
T2 sequence (Q99436 44-277): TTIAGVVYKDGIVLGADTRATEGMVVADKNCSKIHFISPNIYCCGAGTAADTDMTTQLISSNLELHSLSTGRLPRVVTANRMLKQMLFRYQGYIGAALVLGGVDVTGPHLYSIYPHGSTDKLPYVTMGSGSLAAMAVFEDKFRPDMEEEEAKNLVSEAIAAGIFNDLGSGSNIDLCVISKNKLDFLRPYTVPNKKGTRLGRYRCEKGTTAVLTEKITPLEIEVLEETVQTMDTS
T2 sequence (P28072 1-239): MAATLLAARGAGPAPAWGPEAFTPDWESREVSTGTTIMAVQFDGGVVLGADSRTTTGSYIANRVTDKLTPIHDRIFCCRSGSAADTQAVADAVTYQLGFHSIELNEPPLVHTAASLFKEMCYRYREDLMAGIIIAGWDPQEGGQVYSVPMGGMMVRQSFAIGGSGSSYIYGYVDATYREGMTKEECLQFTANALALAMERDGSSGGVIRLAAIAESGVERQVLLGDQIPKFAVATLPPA
Description: (§5) Cell viability was evaluated with the 3‐(4,5‐dimethylthiazol‐2‐yl)‐2,5‐diphenyltetrazolium bromide assay (MTT).^[ [25] ^] Upon 6 h and 24 h treatment with increasing concentrations (0‐10 µM) of C1, C2, and C3 dissolved in DMSO, cells were washed in PBS, pH 7.5, and then MTT (final concentration 0.5 mg mL^−1) was added to the culture medium without FBS and incubated for 2 h at 37 °C. The medium was then removed and replaced with 100 µL of DMSO. The optical density was measured at 550 nm in a microtiter plate reader. At least six cultures were utilized for each time point. […] Protein concentration was determined by the method of Bradford using bovine serum albumin (BSA) as standard.^[ [26] ^]
(§6) The effects on the proteasome system were evaluated through fluorimetric assays, as previously reported,^[ [27] ^] using the following synthetic substrates: Leu‐Leu‐Val‐Tyr‐AMC for ChT‐L, Leu‐Ser‐Thr‐Arg‐AMC for T‐L, Leu‐Leu‐Glu‐AMC for PGPH, and Gly‐Pro‐Ala‐Leu‐Ala‐AMC for BrAAP, whose test is performed with the addition of the aminopeptidase‐N (AP‐N). […] Incubation was performed at 37 °C, and after 60 min, the fluorescence of the hydrolyzed 7‐amino‐4‐methyl‐coumarin (AMC) was recorded (AMC, λexc = 365 nm, λem = 449 nm) on a SpectraMax Gemini XPS microplate reader. […] The fluorescence values of lysates were subtracted of the values of control assays in the presence of the two inhibitors.

[4] = molecular target: T3, constitutive 20S proteasome (Bos taurus, UniProt Q2TBP0+Q32KL2+Q3MHN0); experiment: In vitro activity assays on isolated constitutive 20S proteasome (fluorogenic peptides); type: biochemical; settings: isolated 20S from bovine brain
T3 construct: isolated constitutive and immunoproteasomes purified from bovine brain and thymus, respectively; from tissue; host or cells: bovine brain
Description: as §3, §4

[5] = system: LC3II and p62; experiment: Western blot of autophagy markers (LC3II, p62); type: cell-based, human; settings: 6 h
Description: as §1
as §2, with “Each gel was loaded with molecular weight markers in the range of 12 to 225 kDa (GE Healthcare). Glyceraldehyde‐3‐phosphate dehydrogenase (GAPDH) was utilized as a control for equal protein loading: membranes were stripped and re‐probed with anti‐GAPDH monoclonal antibody (Santa Cruz Biotechnology, Heidelberg, Germany). Stripping buffer contained 200 mM glycine, 0.1% SDS, and 1% Tween 20.” left out

[6] = system: SH‐SY5Y control and transfected cells; experiment: MTT cell viability assay; type: cell-based, human; settings: 24 h exposure, 10 µM, data not shown
Description: as §1

[7] = system: Aβ(1‐42); experiment: Quantification of Aβ(1‐42) by ELISA in medium and cellular extracts; type: cell-based, human; settings: APPwt cells, 24 h, 5 µM
Description: Levels of Aβ(1‐42) secreted into the medium and present in cellular extracts were determined after PVLs treatment using the Human Aβ42 solid‐phase sandwich ELISA Kit from Invitrogen, following the manufacturer's instructions. For Aβ quantification in cell medium, culture medium was collected after neuronal cells treatment, centrifuged at 300 × g for 10 min to remove non adherent cells and debris and then treated with protease inhibitors.

[8] = molecular target: T4, Cathepsin B (Homo sapiens, UniProt P07858); experiment: Cathepsin B activity in cell lysates (Z‐Arg‐Arg‐AMC); type: cell-based; settings: APPmut cells, 6 h treatment
T4 construct: The mixture for cathepsin B, containing 1 µg of cell lysate; endogenous in cells; host or cells: SH-SY5Y (control, APPwt- and APPmut-transfected)
Description: as §1
Cathepsin B proteolytic activity was measured using the fluorogenic peptide Z‐Arg‐Arg‐AMC at a final concentration of 50 µM, as previously described.^[ [24] ^] The mixture for cathepsin B, containing 1 µg of cell lysate, was pre‐incubated in 100 mM phosphate buffer pH 6.0, 1 mM EDTA, and 2 mM dithiothreitol for 5 min at 30°C. Upon the addition of the substrate, the mixture was incubated for 15 min at 30°C. The fluorescent signal released by the hydrolyzed 7‐amino‐4‐methyl‐coumarin (AMC, λexc = 365 nm, λem = 449 nm) was detected on a SpectraMax Gemini XPS microplate reader.

[9] = molecular target: T5, 26S proteasome (Homo sapiens, UniProt P28074); experiment: 26S proteasome ChT‐L activity in cell lysates (fluorimetric); type: cell-based; settings: cellular lysates, 24‐h exposure; versus untreated cells
T5 construct: ChT‐L activity of the 26S proteasome measured in control and transfected SH‐SY5Y cells; endogenous in cells; host or cells: SH-SY5Y (control, APPwt- and APPmut-transfected)
T5 sequence (P28074 60-263): T2 sequence (P28074 60-263)
Description: as §5, §6

[10] = 6 h exposure, control and transfected SH‐SY5Y cells
[11] = 24 h treatment, mainly in APPmut cells exposed to C1
[12] = 30 min preincubation, 37°C, read-out: IC50 ChT‐L Immunoproteasome
[13] = read-out: IC50 BrAAP Immunoproteasome
[14] = read-out: IC50 PGPH Immunoproteasome
[15] = read-out: IC50 T‐L Immunoproteasome
[16] = 30 min preincubation, 37°C, read-out: IC50 ChT‐L Constitutive proteasome
[17] = read-out: IC50 BrAAP Constitutive proteasome
[18] = read-out: IC50 PGPH Constitutive proteasome
[19] = read-out: IC50 T‐L Constitutive proteasome

| proteasome inhibition, comparison among the three tested compounds [3] | Compound | levels of Ub‐conjugates and p27 [1, 10] | levels of Ub‐conjugates and p27 [1, 11] | IC50 [2, 12] [nM] | IC50 [2, 13] [nM] | IC50 [2, 14] [nM] | IC50 [2, 15] [nM] | IC50 [4, 16] [nM] | IC50 [4, 17] [nM] | IC50 [4, 18] [nM] | IC50 [4, 19] [nM] | levels of LC3II ([5]; APPwt cells) | number of APPmut viable cells (MTT) [6] | Aβ(1‐42) levels [7] | inhibition at 5 µM [8] [%] | levels of LC3II ([5]; APPmut cells) | ChT‐L residual activity, 26S proteasome [9] [%] |
| --- | --- | --- | --- | --- | --- | --- | --- | --- | --- | --- | --- | --- | --- | --- | --- | --- | --- |
| the least efficient | O=C1CCC(Cc2ccc(O)c(O)c2)O1 (centres unmarked) [Compound C2, 5‐(3ʹ,4ʹ‐dihydroxyphenyl)‐γ‐valerolactone] | no particular effect | evident increase | 238 ± 16.7 | 61.3 ± 5.7 | 114 ± 19.7 | 334 ± 28.9 | 16.2 ± 1.2 | 256 ± 14.4 | 85.8 ± 7.8 | 87.4 ± 7.9 | increased | minor reduction | did not induce any change | 20 |  |  |
|  | O=C1CCC(Cc2ccc(O)cc2)O1 (centres unmarked) [Compound C1, 5‐(4ʹ‐hydroxyphenyl)‐γ‐valerolactone] | no particular effect | evident increase | 126 ± 11.3 | 218 ± 19.6 | 41.8 ± 3.8 | 227 ± 13.2 | 120 ± 12.1 | 243 ± 20.1 | 62.8 ± 58.7 | 13 ± 2.1 |  |  | significantly reduced | 20 | increased | 30 |

Reference: publication PMC9285603, “Flavan‐3‐ol Microbial Metabolites Modulate Proteolysis in Neuronal Cells Reducing Amyloid‐beta (1‐42) Levels” (Molecular Nutrition & Food Research, 2021)
